Data published in patent US4684637A, “Method of decreasing rate of heme metabolism” (The Rockefeller University, priority 1985, dated 1987).
Several values for one entry are separate records, joined by “and”; a condition that tells them apart may be missing. Equal entries are not always repeated.

Experiments:
Assay type in all cases: in vivo, rat
[1] = test system: heme oxygenase; assay: heme oxygenase activity in liver, kidney and spleen of neonatal rats treated with Cr-protoporphyrin
Procedure: (§1) The treated animals and the controls were assayed for heme oxygenase activity and bilirubin concentration. Since heme oxygenase is an essential component in the catabolism of heme, an increase in heme oxygenase activity is indicative of an increase in the rate of heme catabolism. Heme oxygenase was assyed as described by Maines and Kappas in J. Biol. Chem., 253, 2321-2326 (1978). Total bilirubin in serum was estimated by the method of Roth, Clin. Chem. Acta., 17, 487-492 (1967).
(§2) Similar studies were conducted with neonatal rats treated subcutaneously with 2 and 10 micromoles per kilogram of Cr-protoporphyrin soon after birth. Various organs were analyzed for heme oxygenase activity and bilirubin concentration. The results were compared with controls each of which were treated subcutaneously with 0.1 ml of saline.
The results for heme oxygenase activity in liver, kidney and spleen in nanamoles heme oxygenase per milligram microsomal protein per hour are shown below.

[2] = test system: serum bilirubin; assay: serum bilirubin in neonatal rats treated with Cr-protoporphyrin
Procedure: as §1, §2

[3] = test system: heme oxygenase; assay: hepatic heme oxygenase activity in neonatal rats treated with Sn-protoporphyrin
Procedure: (§3) To determine the efficacy of Sn-protoporphyrin for controlling the rate of heme metabolism, neonatal rats were injected subcutaneously at birth, and at 12, 24, 48 and 72 hours postnatally with 0.1 ml solutions of Sn-protoporphyrin. To prepare the solutions for parenteral injection, the material was taken up in a small volume of 0.2N sodium hydroxide, adjusted to pH 7.4 with one normal hydrochloric acid and made up to final volume with 0.9% sodium chloride. The compositions as prepared and used contained sufficient Sn-protoporphyrin to provide about 100 μmol/Kg body weight in each 0.1 ml injection. Control neonates received an equivalent volume of saline at each time point. Groups of neonates (6-30 animals per group) were sacrificed at selected time intervals.
as §1

[4] = test system: serum bilirubin; assay: total serum bilirubin in neonatal rats treated with Sn-protoporphyrin; details: about 100 μmol/Kg s.c. per injection
Procedure: as §3, §1

[5] = test system: heme oxygenase; assay: heme oxygenase activity (bilirubin production) in liver and kidney microsomes of adult rats treated with Sn-protoporphyrin; details: 50 μmol/Kg s.c.
Procedure: Studies were carried out with adult rats treated with Sn-protoporphyrin to determine the effect on heme oxygenase activity and bilirubin production. Three rats weighing about 230 grams each were injected subcutaneously with 50 μmol/Kg of Sn-protoporphyrin in isotonic saline at pH 8. Three controls were similiary treated with isotonic saline. The rats were sacrificed sixteen hours after treatment. The microsomal protein of the separate livers and of the three combined kidneys was estimated and heme oxygenase activity determined according to the method of Maines and Kappas. This procedure measures the heme oxygenase activity by determining the amount of bilirubin produced. The concentration unit for bilirubin is nanamoles bilirubin formed per milligram protein per hour.

[6] = neonatal rats, about 100 μmol/Kg s.c. per injection

In the case of C=CC1=C(C)c2cc3[n-]c(cc4[n-]c(cc5nc(cc1n2)C(C)=C5C=C)c(C)c4CCC(=O)[O-])c(CCC(=O)[O-])c3C.[Cr+3].[H+] [Cr-protoporphyrin], the “effect on heme oxygenase” value ([1]; 2 and 10 μmol/Kg s.c., liver, kidney, spleen) is reported as “immediate decrease in heme oxygenase”, the heme oxygenase activity ([1]; kidney, 2 μmol/Kg s.c. soon after birth, day 2) is reported as 0.36 nanamoles heme oxygenase per m and the heme oxygenase activity ([1]; kidney, 2 μmol/Kg s.c. soon after birth, day 3) is reported as 0.72 nanamoles heme oxygenase per m. The heme oxygenase activity ([1]; kidney, 2 μmol/Kg s.c. soon after birth, day 5) was 0.94 nanamoles heme oxygenase per m, the heme oxygenase activity ([1]; kidney, 2 μmol/Kg s.c. soon after birth, day 7) was 1.17 nanamoles heme oxygenase per m and the heme oxygenase activity ([1]; kidney, 2 μmol/Kg s.c. soon after birth, day 10) was 1.67 nanamoles heme oxygenase per m. The heme oxygenase activity ([1]; kidney, 2 μmol/Kg s.c. soon after birth, day 14) was 0.74 nanamoles heme oxygenase per m, the heme oxygenase activity ([1]; kidney, 2 μmol/Kg s.c. soon after birth, day 21) was 0.61 nanamoles heme oxygenase per m and the heme oxygenase activity ([1]; kidney, 2 μmol/Kg s.c. soon after birth, day 35) was 0.58 nanamoles heme oxygenase per m. The heme oxygenase activity ([1]; kidney, 10 μmol/Kg s.c. soon after birth, day 2) was 0 nanamoles heme oxygenase per m, the heme oxygenase activity ([1]; kidney, 10 μmol/Kg s.c. soon after birth, day 3) was 0.42 nanamoles heme oxygenase per m and the heme oxygenase activity ([1]; kidney, 10 μmol/Kg s.c. soon after birth, day 5) was 0.59 nanamoles heme oxygenase per m. For the same molecule, the heme oxygenase activity ([1]; kidney, 10 μmol/Kg s.c. soon after birth, day 7) was 0.48 nanamoles heme oxygenase per m, the heme oxygenase activity ([1]; kidney, 10 μmol/Kg s.c. soon after birth, day 10) was 0.34 nanamoles heme oxygenase per m and the heme oxygenase activity ([1]; kidney, 10 μmol/Kg s.c. soon after birth, day 14) was 0.41 nanamoles heme oxygenase per m. The heme oxygenase activity ([1]; kidney, 10 μmol/Kg s.c. soon after birth, day 21) was 0.16 nanamoles heme oxygenase per m, the heme oxygenase activity ([1]; kidney, 10 μmol/Kg s.c. soon after birth, day 35) was 0.45 nanamoles heme oxygenase per m and the heme oxygenase activity ([1]; liver, 2 μmol/Kg s.c. soon after birth, day 2) was 5.81 nanamoles heme oxygenase per m. The heme oxygenase activity ([1]; liver, 2 μmol/Kg s.c. soon after birth, day 3) was 5.60 nanamoles heme oxygenase per m, the heme oxygenase activity ([1]; liver, 2 μmol/Kg s.c. soon after birth, day 5) was 5.36 nanamoles heme oxygenase per m and the heme oxygenase activity ([1]; liver, 2 μmol/Kg s.c. soon after birth, day 7) was 4.42 nanamoles heme oxygenase per m. The heme oxygenase activity ([1]; liver, 2 μmol/Kg s.c. soon after birth, day 10) was 3.62 nanamoles heme oxygenase per m, the heme oxygenase activity ([1]; liver, 2 μmol/Kg s.c. soon after birth, day 14) was 2.24 nanamoles heme oxygenase per m and the heme oxygenase activity ([1]; liver, 2 μmol/Kg s.c. soon after birth, day 21) was 1.94 nanamoles heme oxygenase per m. For the same molecule, the heme oxygenase activity ([1]; liver, 2 μmol/Kg s.c. soon after birth, day 35) was 2.38 nanamoles heme oxygenase per m, the heme oxygenase activity ([1]; liver, 10 μmol/Kg s.c. soon after birth, day 2) was 1.67 nanamoles heme oxygenase per m and the heme oxygenase activity ([1]; liver, 10 μmol/Kg s.c. soon after birth, day 3) was 1.43 nanamoles heme oxygenase per m. The heme oxygenase activity ([1]; liver, 10 μmol/Kg s.c. soon after birth, day 5) was 1.22 nanamoles heme oxygenase per m, the heme oxygenase activity ([1]; liver, 10 μmol/Kg s.c. soon after birth, day 7) was 0.85 nanamoles heme oxygenase per m and the heme oxygenase activity ([1]; liver, 10 μmol/Kg s.c. soon after birth, day 10) was 0.85 nanamoles heme oxygenase per m. The heme oxygenase activity ([1]; liver, 10 μmol/Kg s.c. soon after birth, day 14) was 0.78 nanamoles heme oxygenase per m, the heme oxygenase activity ([1]; liver, 10 μmol/Kg s.c. soon after birth, day 21) was 0.56 nanamoles heme oxygenase per m and the heme oxygenase activity ([1]; liver, 10 μmol/Kg s.c. soon after birth, day 35) was 1.23 nanamoles heme oxygenase per m. For the same molecule, the heme oxygenase activity ([1]; spleen, 2 μmol/Kg s.c. soon after birth, day 2) was 7.33 nanamoles heme oxygenase per m, the heme oxygenase activity ([1]; spleen, 2 μmol/Kg s.c. soon after birth, day 3) was 11.13 nanamoles heme oxygenase per m and the heme oxygenase activity ([1]; spleen, 2 μmol/Kg s.c. soon after birth, day 5) was 15.13 nanamoles heme oxygenase per m. For the same molecule, the heme oxygenase activity ([1]; spleen, 2 μmol/Kg s.c. soon after birth, day 7) was 11.18 nanamoles heme oxygenase per m, the heme oxygenase activity ([1]; spleen, 2 μmol/Kg s.c. soon after birth, day 10) was 13.87 nanamoles heme oxygenase per m and the heme oxygenase activity ([1]; spleen, 2 μmol/Kg s.c. soon after birth, day 14) was 16.62 nanamoles heme oxygenase per m. The heme oxygenase activity ([1]; spleen, 2 μmol/Kg s.c. soon after birth, day 21) was 10.28 nanamoles heme oxygenase per m, the heme oxygenase activity ([1]; spleen, 2 μmol/Kg s.c. soon after birth, day 35) was 15.55 nanamoles heme oxygenase per m and the heme oxygenase activity ([1]; spleen, 10 μmol/Kg s.c. soon after birth, day 2) was 3.97 nanamoles heme oxygenase per m. The heme oxygenase activity ([1]; spleen, 10 μmol/Kg s.c. soon after birth, day 3) was 4.62 nanamoles heme oxygenase per m, the heme oxygenase activity ([1]; spleen, 10 μmol/Kg s.c. soon after birth, day 5) was 2.76 nanamoles heme oxygenase per m and the heme oxygenase activity ([1]; spleen, 10 μmol/Kg s.c. soon after birth, day 7) was 6.19 nanamoles heme oxygenase per m. For the same molecule, the heme oxygenase activity ([1]; spleen, 10 μmol/Kg s.c. soon after birth, day 10) was 9.53 nanamoles heme oxygenase per m, the heme oxygenase activity ([1]; spleen, 10 μmol/Kg s.c. soon after birth, day 14) was 10.34 nanamoles heme oxygenase per m and the heme oxygenase activity ([1]; spleen, 10 μmol/Kg s.c. soon after birth, day 21) was 8.06 nanamoles heme oxygenase per m. For the same molecule, the heme oxygenase activity ([1]; spleen, 10 μmol/Kg s.c. soon after birth, day 35) was 13.72 nanamoles heme oxygenase per m, the “Serum Bilirubin” value ([2]; 2 μmol/Kg s.c. soon after birth, day 2) was 0.39 milligrams per deciliter and the “Serum Bilirubin” value ([2]; 2 μmol/Kg s.c. soon after birth, day 3) was 0.33 milligrams per deciliter. For the same molecule, the “Serum Bilirubin” value ([2]; 2 μmol/Kg s.c. soon after birth, day 5) was 0.28 milligrams per deciliter, the “Serum Bilirubin” value ([2]; 2 μmol/Kg s.c. soon after birth, day 7) was 0.32 milligrams per deciliter and the “Serum Bilirubin” value ([2]; 2 μmol/Kg s.c. soon after birth, day 10) was 0.33 milligrams per deciliter. The “Serum Bilirubin” value ([2]; 2 μmol/Kg s.c. soon after birth, day 14) was 0.40 milligrams per deciliter, the “Serum Bilirubin” value ([2]; 10 μmol/Kg s.c. soon after birth, day 2) was 0.43 milligrams per deciliter and the “Serum Bilirubin” value ([2]; 10 μmol/Kg s.c. soon after birth, day 3) was 0.33 milligrams per deciliter. The “Serum Bilirubin” value ([2]; 10 μmol/Kg s.c. soon after birth, day 5) was 0.24 milligrams per deciliter, the “Serum Bilirubin” value ([2]; 10 μmol/Kg s.c. soon after birth, day 7) was 0.30 milligrams per deciliter and the “Serum Bilirubin” value ([2]; 10 μmol/Kg s.c. soon after birth, day 10) was 0.33 milligrams per deciliter. For the same molecule, the “Serum Bilirubin” value ([2]; 10 μmol/Kg s.c. soon after birth, day 14) was 0.28 milligrams per deciliter.
In the case of C=Cc1c2[n-]c(c1C)/C=c1\[n-]/c(c(C)c1C=C)=C\c1[n-]c(c(CCC(=O)O)c1C)C=c1[n-]/c(c(C)c1CCC(=O)O)=C\2.[Sn+4] [Sn-protoporphyrin, tin protoporphyrin IX], the “activity compared with Cr-protoporphyrin” value ([3]; decreasing rate of heme metabolism) is reported as “more active”, the “effect on normal postnatal increase in hepatic heme oxygenase activity” value ([3]; neonatal rats, about 100 μmol/Kg s.c. at birth and 12, 24, 48, 72 hours, six week study) is reported as “completely prevented the normal marked increase in hepatic heme oxygenase activity after birth” and the “day at which hepatic heme oxygenase activity attained normal control levels” value [3, 6] is reported as ~42 days. For the same molecule, the “time hepatic heme oxygenase activity remained well below control levels” value [3, 6] was “about three”, the “hepatic heme oxygenase activity relative to controls” value ([3]; neonatal rats, about 100 μmol/Kg s.c. per injection, 1 day) was “less than half the levels of the controls” and the “day until which low bilirubin concentration continued” value [4] was “fourth”. For the same molecule, the “effect on serum bilirubin levels” value ([4]; 42 day study) was “immediate and significant lowering of serum bilirubin levels”, the “effect on bilirubin production and heme oxygenase activity” value [5] was “extremely effective” and the “heme oxygenase activity (bilirubin produced), LIVER” value ([5]; sacrificed sixteen hours after treatment, separate livers (Experiment 1-3 = individual rats)) was 0.95 nanamoles bilirubin formed per and 1.53 nanamoles bilirubin formed per. For the same molecule, the “heme oxygenase activity (bilirubin produced), KIDNEY (COMBINED)” value ([5]; sacrificed sixteen hours after treatment, three combined kidneys) was 0.055 nanamoles bilirubin formed per.
